Values of other authors in article PMC10769797 (The Oncologist, 2023).

Tests used:
[1] = test system: patients with advanced solid tumors; details: phase I study; cited from earlier work
POLR2A expression = details: cited from earlier work

CC1(C)CC[C@H](Nc2ncc(C(F)(F)F)c(-c3c[nH]c4c(P(C)(C)=O)c(C#N)ccc34)n2)CN1 [SY-5609]
DLTs [1]: cytopenia, gastrointestinal toxicity, and hypotension
Most frequent TEAEs [1]: gastrointestinal toxicity, fatigue, thrombocytopenia, and anemia
POLR2A expression change compared with baseline (POLR2A expression; CDK7-target occupancy up to 100%): 4-5 fold
POLR2A expression change in PBMCs (POLR2A expression; at 75% CDK7-target occupancy): approximately 2.5 fold
